Test results reported in patent publication US8178091B2, “Compositions and methods for the treatment of respiratory disorders” (University of Washington, priority 2007, dated 2012).
“Also recorded” adds a separate entry of the source.

Experiments:
[1] = tested on: epithelial cells (A549); test: Fas-induced apoptosis, epithelial cells; format: cell-based, human; conditions: A549, antibody 136 μg/ml with Fas ligand
Procedure: (§1) A: Normal human lung fibroblast or distal lung epithelial cells were serum-starved overnight and then incubated with indicated concentration of IGF-1R antibody or IGFBP-3 overnight. B: A549 cells were serum-starved and incubated with IGF-1R antibody (136 μg/ml) with or without the indicated concentration of Fas ligand. Apoptosis was measured by Cell Death ELISA-plus ELISA (Roche Applied Science) per the manufacturer's directions. All experiments were done in triplicate and repeated at least twice. Apoptosis index is defined as the ratio of experimental condition OD405 nm: control (media alone) OD405 nm.
(§2) Primary normal human lung fibroblasts (Clonetics, Cambrex Bioscience, Rockland, Me.), primary distal lung human epithelial cells (Clonetics) or A549 (American Type Culture Collection, Manassas, Va.) were seeded in a 96-well tissue culture plate (2×10^4 cells/well) overnight and serum-starved for 24 hours. […] After 48 hours, apoptosis was measured. To prevent detached cells from being aspirated, plates were centrifuged at 200×g for 10 minutes, and apoptosis was measured using the Cell Death Detection ELISA-plus System (Roche Applied Science, Penzberg, Germany), which detects cytosolic histone-complexed DNA fragments. […]

[2] = molecular target: T1, IGF-1R (Mus musculus, UniProt Q60751); test: IGF-1R expression in tissues after systemic A12 (IHC, Western blot); format: in vivo, mice
T1 construct: Western blot analysis for IGF-1R on lungs and spleen lysates at day 14 post-bleomycin; from tissue; host or cells: mouse lung, spleen, kidney
Procedure: ICR male mice are anesthetized under pentobarbital (60 mg/kg, i.v.) anesthesia, the cervical region is shaved and the skin is incised for about 4 mm from under the larynx region along the median line. Next, the muscle layer covering upper trachea is peeled off to expose the trachea. Using a micro-syringe, physiological saline or bleomycin hydrochloride (0.03 mg/animal, manufactured by Nippon Kayaku) is administered tracheally (50 μl/animal) from the tracheal smooth muscle region between cricoid cartilage. After the administration, the incised region is closed and antibiotics are administered into the thigh intramuscularly in order to prevent infection. IGF-1R inhibitor, e.g., antibody to IGF-1 receptor (A12). The A12 antibody was administered intraperitoneally at the time of bleomycin administration and subsequently 2-3× per week at a dose of 40 mg/kg (initial experiments involved dosing 3× per week, and later experiments dosed 2× per week; results were the same). […] Controls included bleomycin-treated animals receiving saline injection in place of A12 antibody. […] Lung hydroxyproline content is measured as a measure of fibrosis. Changes in lung tissue histology are also monitored. […] Bronchoalveolar lavage fluid (BALF) total cell count was determined by trypan blue exclusion and cell differential was determined on Diff quick (Dade Behring Ag, Düdingen, Switzerland) stained cytospins. […]

[3] = tested on: primary normal human lung fibroblasts; test: apoptosis assay (Cell Death Detection ELISA-plus), lung fibroblasts; format: cell-based; conditions: serum starvation, increasing concentrations; listed as IGF-1R antibody
Procedure: as §1, §2

T1 sequence (Q60751 31-1373): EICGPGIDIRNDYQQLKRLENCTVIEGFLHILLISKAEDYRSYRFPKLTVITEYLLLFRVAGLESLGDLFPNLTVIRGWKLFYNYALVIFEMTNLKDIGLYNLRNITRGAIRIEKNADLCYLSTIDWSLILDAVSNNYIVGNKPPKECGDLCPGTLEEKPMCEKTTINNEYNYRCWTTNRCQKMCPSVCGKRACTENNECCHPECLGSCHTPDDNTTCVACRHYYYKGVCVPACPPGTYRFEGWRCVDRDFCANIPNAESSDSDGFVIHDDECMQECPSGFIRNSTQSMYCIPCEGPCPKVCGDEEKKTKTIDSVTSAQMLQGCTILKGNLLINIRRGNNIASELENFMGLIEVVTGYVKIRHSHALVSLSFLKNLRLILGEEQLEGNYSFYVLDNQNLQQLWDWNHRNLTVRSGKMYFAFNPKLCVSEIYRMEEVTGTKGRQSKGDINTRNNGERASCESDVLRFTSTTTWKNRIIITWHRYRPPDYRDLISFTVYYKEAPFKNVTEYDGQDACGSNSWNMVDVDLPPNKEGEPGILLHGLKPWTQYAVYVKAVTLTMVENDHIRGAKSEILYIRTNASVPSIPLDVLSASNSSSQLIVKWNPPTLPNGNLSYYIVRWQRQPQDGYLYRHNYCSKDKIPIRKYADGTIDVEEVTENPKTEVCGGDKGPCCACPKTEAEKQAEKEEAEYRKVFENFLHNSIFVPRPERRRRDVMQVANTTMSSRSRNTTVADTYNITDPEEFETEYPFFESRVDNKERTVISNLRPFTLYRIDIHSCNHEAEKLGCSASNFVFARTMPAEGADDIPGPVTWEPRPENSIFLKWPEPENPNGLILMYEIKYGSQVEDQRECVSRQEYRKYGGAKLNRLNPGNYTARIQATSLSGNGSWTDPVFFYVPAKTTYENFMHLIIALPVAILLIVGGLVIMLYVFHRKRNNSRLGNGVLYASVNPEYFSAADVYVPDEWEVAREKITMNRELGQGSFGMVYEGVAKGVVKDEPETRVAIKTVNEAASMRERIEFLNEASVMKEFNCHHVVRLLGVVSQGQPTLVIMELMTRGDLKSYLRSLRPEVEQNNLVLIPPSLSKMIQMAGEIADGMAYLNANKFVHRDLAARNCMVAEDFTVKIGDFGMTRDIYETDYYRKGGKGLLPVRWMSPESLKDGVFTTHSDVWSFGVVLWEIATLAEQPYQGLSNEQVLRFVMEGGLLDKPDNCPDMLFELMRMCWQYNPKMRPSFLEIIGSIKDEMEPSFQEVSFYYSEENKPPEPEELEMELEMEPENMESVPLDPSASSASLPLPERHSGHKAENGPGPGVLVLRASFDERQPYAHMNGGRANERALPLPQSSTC

A12: Function blocking antibody to the human type 1 IGF receptor, gift from ImClone Systems
Fas-induced apoptosis of epithelial cells [1]: did not alter Fas-induced apoptosis | IGF-1R expression in lungs ([2]; day 7 post-bleomycin, vs saline): marked decrease in IGF-1R expression; also recorded: decreased IGF-1R expression | IGF-1R in the kidney (Western blotting) ([2]; systemic effect of antibody): down-regulation of IGF-1R in the kidney | apoptosis of primary human lung fibroblasts [3]: dose-dependent increase in apoptosis; also recorded: increased apoptosis
